From PubChem BioAssay AID228 (DTP/NCI, 2004) come the findings set out here.

The assay deals with BDF1 mice, Friend leukemia sc, tumor weight T/C. Nature of the assay: NCI In Vivo Anticancer Drug Screen. Data for tumor model Friend Virus Leukemia (Solid) (subcutaneous) in B6D2F1 (BDF1) mice. The conditions noted are these: endpoint: mean tumor weight, higher = larger tumour. The method, then: The antitumor activity of compounds was measured in mice bearing transplantable tumors. Survival or tumor size were measured and the results are expressed as the measurement made in the treated group (T) divided by the measurement made in the vehicle treated control group (C). The tumor model used in this assay is Friend Virus Leukemia (Solid) (subcutaneous) in B6D2F1 (BDF1) mice

Setting [1] is: dose: 1.0 mg/kg/injection, schedule: Q01DX011 (ip), vehicle: carboxymethylcellulose (CMC).
Where [2] appears, read: dose: 25.0 mg/kg/injection, schedule: Q01DX011 (ip), vehicle: carboxymethylcellulose (CMC).
[3] abbreviates: dose: 50.0 mg/kg/injection, schedule: Q01DX011 (ip), vehicle: carboxymethylcellulose (CMC).
The mark [4] stands for this setting: dose: 100.0 mg/kg/injection, schedule: Q01DX011 (ip), vehicle: carboxymethylcellulose (CMC).
Setting [5] is: dose: 18.0 mg/kg/injection, schedule: Q01DX011 (ip), vehicle: carboxymethylcellulose (CMC).
The mark [6] stands for this setting: dose: 50.0 mg/kg/injection, schedule: Q01DX011 (ip), vehicle: saline.
Setting [7] is: dose: 62.0 mg/kg/injection, schedule: Q01DX011 (ip), vehicle: carboxymethylcellulose (CMC).
The mark [8] stands for this setting: dose: 125.0 mg/kg/injection, schedule: Q01DX011 (ip), vehicle: carboxymethylcellulose (CMC).
Where [9] appears, read: dose: 250.0 mg/kg/injection, schedule: Q01DX011 (ip), vehicle: carboxymethylcellulose (CMC).
Where [10] appears, read: dose: 500.0 mg/kg/injection, schedule: Q01DX011 (ip), vehicle: carboxymethylcellulose (CMC).
Where [11] appears, read: dose: 37.5 mg/kg/injection, schedule: Q01DX011 (ip), vehicle: saline.
Where [12] appears, read: dose: 75.0 mg/kg/injection, schedule: Q01DX011 (ip), vehicle: carboxymethylcellulose (CMC).

Where “and” joins values, the source holds several entries; their conditions need not be identical. Equal entries are not always repeated. Inconclusive results are not listed.

As to `Nc1nc(SCc2ccccc2Cl)c2[nH]cnc2n1`, the T/C under setting [1] is 88 % of control; the T/C (dose: 3.0 mg/kg/injection, schedule: Q01DX011 (ip), vehicle: carboxymethylcellulose (CMC)) is 77 % of control; the T/C (dose: 6.0 mg/kg/injection, schedule: Q01DX011 (ip), vehicle: carboxymethylcellulose (CMC)) was 67 % of control; the T/C (dose: 12.0 mg/kg/injection, schedule: Q01DX011 (ip), vehicle: carboxymethylcellulose (CMC)) was 28 % of control; the T/C under setting [2] is 18 % of control; the T/C under setting [3] was 7 % of control. Further, the T/C under setting [4] is 2 % of control.

For `CN(C)C1C(=O)C(C(N)=O)=C(O)C2(O)C(=O)C3=C(O)c4c(O)cccc4C(C)(O)C3C(O)C12` (configuration not stated), the T/C (dose: 19.5 mg/kg/injection, schedule: Q01DX011 (ip), vehicle: carboxymethylcellulose (CMC)) is 94 % of control; the T/C (dose: 78.0 mg/kg/injection, schedule: Q01DX011 (ip), vehicle: carboxymethylcellulose (CMC)) is 115 % of control; the T/C (dose: 156.0 mg/kg/injection, schedule: Q01DX011 (ip), vehicle: carboxymethylcellulose (CMC)) is 95 % of control.

Take `CO[C@H]1[C@@H](O)C[C@H]2[C@@H]3CC=C4C[C@@H](O)CC[C@]4(C)[C@H]3CC[C@@]21C`: the T/C is, setting by setting: (dose: 10.0 mg/kg/injection, schedule: Q01DX011 (sc), vehicle: steriod suspending solution) 77 % of control; (dose: 20.0 mg/kg/injection, schedule: Q01DX011 (sc), vehicle: steriod suspending solution) 116 % of control; (dose: 40.0 mg/kg/injection, schedule: Q01DX011 (sc), vehicle: steriod suspending solution) 115 % of control.

Consider `Clc1ncnc2nc[nH]c12`, for which the T/C by setting is: under setting [3], 71 % of control; under setting [4], 47 % of control; (dose: 200.0 mg/kg/injection, schedule: Q01DX011 (ip), vehicle: carboxymethylcellulose (CMC)) 18 % of control.

On to `O=[n+]1c2c(n([O-])c3ccccc31)-c1cccc3cccc-2c13`, for which the T/C by setting is: under setting [2], 87 % of control; under setting [3], 55 % of control; under setting [4], 43 % of control.

As for `S=P(N1CCOCC1)(N1CC1)N1CC1`, the T/C runs as follows: (dose: 12.5 mg/kg/injection, schedule: Q01DX011 (ip), vehicle: carboxymethylcellulose (CMC)) 71 % of control; under setting [2], 41 % of control.

With `Fc1ccc(CSc2ncnc3c2ncn3C2CCCCO2)cc1` (configuration not stated), the T/C runs as follows: (dose: 90.0 mg/kg/injection, schedule: Q01DX011 (ip), vehicle: carboxymethylcellulose (CMC)) 10 % of control; (dose: 180.0 mg/kg/injection, schedule: Q01DX011 (ip), vehicle: carboxymethylcellulose (CMC)) 1 % of control.

Turning to `NC1(C(=O)O)CCCC1`, the T/C was 95 % of control (dose: 4.5 mg/kg/injection, schedule: Q01DX011 (ip), vehicle: carboxymethylcellulose (CMC)); 89 % of control (dose: 9.0 mg/kg/injection, schedule: Q01DX011 (ip), vehicle: carboxymethylcellulose (CMC)); 63 % of control under setting [5]; 53 % of control (dose: 36.0 mg/kg/injection, schedule: Q01DX011 (ip), vehicle: carboxymethylcellulose (CMC)).

For `NNc1ncnc2nc[nH]c12`, the T/C was 118 % of control (dose: 25.0 mg/kg/injection, schedule: Q01DX011 (ip), vehicle: saline) and 61 % of control under setting [6].

Take `O=C(Nc1ccc(C2=NCCN2)cc1)c1cc(Cl)cc(C(=O)Nc2ccc(C3=NCCN3)cc2)c1`: the T/C under setting [7] was 75 % of control, the T/C under setting [8] was 111 % of control, the T/C under setting [9] is 81 % of control and the T/C under setting [10] is 114 % of control.

As to `NCC(O)c1ccc(O)c(O)c1` (configuration not stated), the T/C (dose: 9.37 mg/kg/injection, schedule: Q01DX011 (ip), vehicle: saline) is 84 % of control; the T/C (dose: 18.75 mg/kg/injection, schedule: Q01DX011 (ip), vehicle: saline) was 69 % of control; the T/C under setting [11] is 30 % of control.

`CCn1cnc2c(SC)nc(N)nc21`: the T/C under setting [2] was 83 % of control, the T/C under setting [3] is 73 % of control and the T/C under setting [4] is 23 % of control.

For the compound `CCc1ccccc1N1CCN(C(=O)c2cc(OC)c(OC)c(OC)c2)CC1`, the T/C by setting is: (dose: 0.25 mg/kg/injection, schedule: Q01DX011 (ip), vehicle: carboxymethylcellulose (CMC)) 64 % of control; (dose: 0.5 mg/kg/injection, schedule: Q01DX011 (ip), vehicle: carboxymethylcellulose (CMC)) 73 % of control; under setting [1], 64 % of control; (dose: 2.0 mg/kg/injection, schedule: Q01DX011 (ip), vehicle: carboxymethylcellulose (CMC)) 53 % of control and 35 % of control; (dose: 4.0 mg/kg/injection, schedule: Q01DX011 (ip), vehicle: carboxymethylcellulose (CMC)) 67 % of control; (dose: 8.0 mg/kg/injection, schedule: Q01DX011 (ip), vehicle: carboxymethylcellulose (CMC)) 40 % of control. Also, the T/C is, setting by setting: (dose: 16.0 mg/kg/injection, schedule: Q01DX011 (ip), vehicle: carboxymethylcellulose (CMC)) 42 % of control; (dose: 31.0 mg/kg/injection, schedule: Q01DX011 (ip), vehicle: other) 11 % of control.

On to `Nc1ccc(OC(=O)Oc2ccc(N)cc2)cc1`, for which the T/C is 105 % of control (dose: 31.0 mg/kg/injection, schedule: Q01DX011 (ip), vehicle: carboxymethylcellulose (CMC)); 68 % of control under setting [7]; 28 % of control under setting [8].

As for `CC(/C=N\N=C(N)N)=N/N=C(N)N`, the T/C is 111 % of control (dose: 5.7 mg/kg/injection, schedule: Q01DX011 (ip), vehicle: carboxymethylcellulose (CMC)); 70 % of control (dose: 11.5 mg/kg/injection, schedule: Q01DX011 (ip), vehicle: carboxymethylcellulose (CMC)); 96 % of control (dose: 23.0 mg/kg/injection, schedule: Q01DX011 (ip), vehicle: carboxymethylcellulose (CMC)).

Regarding `CCCSc1ncnc2nc[nH]c12`, the T/C was 64 % of control (dose: 18.75 mg/kg/injection, schedule: Q01DX011 (ip), vehicle: carboxymethylcellulose (CMC)); 64 % of control (dose: 37.5 mg/kg/injection, schedule: Q01DX011 (ip), vehicle: carboxymethylcellulose (CMC)); 45 % of control under setting [12]; 8 % of control (dose: 150.0 mg/kg/injection, schedule: Q01DX011 (ip), vehicle: carboxymethylcellulose (CMC)).

Consider `C[C@]12C=CC(=O)C=C1CC[C@@H]1[C@@H]2CC[C@]2(C)OC(=O)CC[C@@H]12`, for which the T/C was 115 % of control (dose: 250.0 mg/kg/injection, schedule: Q01DX011 (sc), vehicle: steriod suspending solution); 120 % of control (dose: 500.0 mg/kg/injection, schedule: Q01DX011 (sc), vehicle: steriod suspending solution); 112 % of control (dose: 1000.0 mg/kg/injection, schedule: Q01DX011 (sc), vehicle: steriod suspending solution).

For the compound `Nc1ncnc2c1ncn2C1CCCO1` (configuration not stated), the T/C is, setting by setting: under setting [3], 111 % of control; under setting [4], 54 % of control.

As to `OCC1OC(n2cnc3c(Cl)ncnc32)C(O)C1O` (configuration not stated), the T/C was 93 % of control under setting [7], 105 % of control under setting [8], 109 % of control under setting [9] and 115 % of control under setting [10].

Regarding `CC1CCC2(C(=O)O)CCC3(C)C(=CCC4C5(C)CCC(O)C(C)(C)C5CCC43C)C2C1C` (configuration not stated), the T/C was 76 % of control (dose: 50.0 mg/kg/injection, schedule: Q01DX011 (ip), vehicle: other); 69 % of control (dose: 100.0 mg/kg/injection, schedule: Q01DX011 (ip), vehicle: other); 115 % of control (dose: 200.0 mg/kg/injection, schedule: Q01DX011 (ip), vehicle: other).

Regarding `CC(C)NCC(=O)c1ccc(O)c(O)c1`, the T/C runs as follows: under setting [6], 95 % of control; (dose: 100.0 mg/kg/injection, schedule: Q01DX011 (ip), vehicle: saline) 110 % of control; (dose: 200.0 mg/kg/injection, schedule: Q01DX011 (ip), vehicle: saline) 102 % of control.

`[I][Hg][CH2]C1OCCOC1[CH2][Hg][I]` (configuration not stated): the T/C is 66 % of control under setting [5]; 76 % of control (dose: 37.0 mg/kg/injection, schedule: Q01DX011 (ip), vehicle: carboxymethylcellulose (CMC)); 46 % of control under setting [12].

For the compound `CN(C)c1ccc(/C=C/c2ccnc3ccccc23)cc1`, the T/C runs as follows: under setting [11], 73 % of control; under setting [6], 51 % of control.
